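1) Cells in 96-well plates. 2) Compound, 48 h, 5 concentrations. 3) Linear interpolation between surrounding doses. 4) Unreached endpoint = highest concentration. TGI: concentration producing complete growth inhibition.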
Tests used:
Assay in all cases: NCI tumour cell line growth inhibition, 48 h
[1] = test system: MALME-3M melanoma
[2] = test system: OVCAR-5 ovarian
[3] = test system: EKVX NSCLC
[4] = test system: HL-60(TB) leukemia
[5] = test system: NCI-H460 lung
[6] = test system: T-47D breast
[7] = test system: RPMI-8226 leukemia
[8] = test system: LOX IMVI melanoma
[9] = test system: SN12C renal
[10] = test system: SK-OV-3 ovarian
[11] = test system: MCF7 breast
[12] = test system: RXF 393 renal
[13] = test system: SNB-75 CNS
[14] = test system: KM12 colon
[15] = test system: OVCAR-8 ovarian
[16] = test system: A549 NSCLC
[17] = test system: DU-145 prostate
[18] = test system: HS 578T breast
[19] = test system: HCT-116 colon
[20] = test system: CCRF-CEM leukemia
[21] = test system: TK-10 renal
[22] = test system: OVCAR-4 ovarian
[23] = test system: 786-0 renal
[24] = test system: K-562 leukemia
[25] = test system: COLO 205 colon
[26] = test system: HT29 colon
[27] = test system: M14 melanoma
[28] = test system: UACC-257 melanoma
[29] = test system: NCI-H522 lung
[30] = test system: MDA-MB-231 breast
[31] = test system: UACC-62 melanoma
[32] = test system: A498 renal
[33] = test system: NCI-H226 lung
[34] = test system: NCI-H23 lung
[35] = test system: SK-MEL-28 melanoma
[36] = test system: OVCAR-3 ovarian
[37] = test system: HOP-62 NSCLC
[38] = test system: HOP-92 NSCLC
[39] = test system: U251 CNS
[40] = test system: SNB-19 CNS
[41] = test system: MDA-MB-435
[42] = test system: MOLT-4 leukemia
[43] = test system: HCT-15 colon
[44] = test system: SK-MEL-5 melanoma
[45] = test system: SW-620 colon
[46] = test system: PC-3 prostate
[47] = test system: UO-31 renal
[48] = test system: SF-295 CNS
[49] = test system: SK-MEL-2 melanoma
[50] = test system: ACHN renal
[51] = test system: SR leukemia
[52] = test system: BT-549 breast
[53] = test system: HCC-2998 colon
[54] = test system: SF-539 CNS
[55] = test system: SF-268 CNS
[56] = test system: CAKI-1 renal
[57] = test system: IGROV1 ovarian
[58] = test system: MDA-N

SMILES: C=C1C(=O)OC2/C=C(\C)C(O)CC(O)C(C)(O)CC(OC(=O)/C(C)=C/C)C12 (stereo not drawn)
- TGI [1]: > 100 µM
- TGI [2]: > 100 µM
- TGI [3]: > 100 µM
- TGI [4]: > 82.8 µM
- TGI [5]: > 100 µM
- TGI [6]: > 100 µM
- TGI [7]: 74.2 µM
- TGI [8]: > 100 µM
- TGI [9]: > 100 µM
- TGI [10]: > 100 µM
- TGI [11]: > 100 µM
- TGI [12]: > 100 µM
- TGI [13]: > 94.2 µM
- TGI [14]: > 75.8 µM
- TGI [15]: > 100 µM
- TGI [16]: > 100 µM
- TGI [17]: > 100 µM
- TGI [18]: > 100 µM
- TGI [19]: > 100 µM
- TGI [20]: > 82.8 µM
- TGI [21]: > 100 µM
- TGI [22]: > 100 µM
- TGI [23]: > 100 µM
- TGI [24]: > 100 µM
- TGI [25]: > 100 µM
- TGI [26]: > 100 µM
- TGI [27]: > 100 µM
- TGI [28]: > 100 µM
- TGI [29]: > 100 µM
- TGI [30]: > 100 µM
- TGI [31]: > 100 µM
- TGI [32]: > 84.3 µM
- TGI [33]: > 100 µM
- TGI [34]: > 100 µM
- TGI [35]: > 100 µM
- TGI [36]: > 100 µM
- TGI [37]: > 100 µM
- TGI [38]: 99.8 µM
- TGI [39]: > 100 µM
- TGI [40]: > 100 µM
- TGI [41]: > 100 µM
- TGI [42]: > 100 µM
- TGI [43]: > 100 µM
- TGI [44]: > 100 µM
- TGI [45]: > 100 µM
- TGI [46]: > 100 µM
- TGI [47]: > 100 µM
- TGI [48]: > 100 µM
- TGI [49]: > 100 µM
- TGI [50]: > 100 µM
- TGI [51]: > 55.9 µM
- TGI [52]: 83.9 µM
- TGI [53]: > 100 µM
- TGI [54]: > 100 µM
- TGI [55]: > 100 µM
- TGI [56]: > 100 µM
- TGI [57]: > 100 µM
- TGI [58]: > 100 µM
